Drawing on PubChem BioAssay (NCI), this text covers TGI and GI50 for 14 compounds.

Test systems include HCC-2998 colon; SNB-75 CNS; IGROV1 ovarian; OVCAR-4 ovarian; ACHN renal; HCT-15 colon; EKVX NSCLC; NCI-H522 lung; MDA-N; T-47D breast; MCF7 breast.
Assay in all cases: DTP human tumour cell line panel, 48 h

SMILES strings stand for the structures. Several values for one entry are separate records, joined by “and”; a condition that tells them apart may be missing. Equal entries are not always repeated.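 The compound was tested at five concentrations on cells cultured in 96-well plates, with a 48-hour exposure period. Abbreviation: GI50, concentration required for 50% inhibition of growth. TGI is the concentration that stops growth completely.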

In the case of `NC(N)=N/N=C/c1c[nH]c2ccccc12`, the TGI in the assay on HCC-2998 colon, in the assay on SNB-75 CNS, in the assay with IGROV1 ovarian, with OVCAR-4 ovarian, in the assay on ACHN renal and in the assay with HCT-15 colon was above 100 µM throughout. Further, the TGI with EKVX NSCLC and in the assay with NCI-H522 lung was above 100 µM throughout.

Take `C(=Nc1ccc(-c2nc3ccccc3[nH]2)cc1)c1cccs1`: the TGI in the assay with MDA-N, in the assay on SNB-75 CNS, in the assay with IGROV1 ovarian, with OVCAR-4 ovarian, in the assay with T-47D breast and with ACHN renal was above 100 µM in each case. Also, the TGI with MCF7 breast, in the assay on HCT-15 colon, with EKVX NSCLC and with NCI-H522 lung was above 100 µM each time.

Regarding `O=C1C=CC[C@H]2O[C@@H](COC(=O)Cc3ccccc3)C[C@H]2O1`, the TGI (as a rule, the concentration at which net growth stops) in the assay with MDA-N was above 100 µM; with SNB-75 CNS it was 77.2 µM; in the assay on IGROV1 ovarian, 54.6 µM; in the assay on OVCAR-4 ovarian, 85.9 µM; in the assay on T-47D breast, above 100 µM; in the assay on ACHN renal, above 100 µM. For the same compound, the TGI with MCF7 breast was above 100 µM; with HCT-15 colon, 45.7 µM; in the assay on EKVX NSCLC, 70.1 µM.

With `COc1cccc(-c2ccc3c4c2O[C@H]2C(=O)CC[C@@]5(O)[C@@H](C3)N(CC3CC3)CC[C@]425)c1`, the TGI was 39.3 µM in the assay with MDA-N; 44.2 µM in the assay on IGROV1 ovarian; 31.4 µM in the assay with OVCAR-4 ovarian; 41.6 µM in the assay with T-47D breast; 35.9 µM with ACHN renal; 31 µM with MCF7 breast. In addition, the values for the TGI in the assay with HCT-15 colon, in the assay on EKVX NSCLC and with NCI-H522 lung were 29.3 µM, 41 µM and 32.9 µM, respectively.

For the compound `O=C(N/N=C/c1ccccc1)c1c(-c2cccnc2)cnc2ccccc12`, the TGI in the assay with HCC-2998 colon, in the assay on MDA-N, in the assay on SNB-75 CNS, in the assay with IGROV1 ovarian, in the assay on OVCAR-4 ovarian and with ACHN renal was above 100 µM throughout. Besides, the TGI with MCF7 breast, in the assay on HCT-15 colon, in the assay on EKVX NSCLC and with NCI-H522 lung was above 100 µM throughout.

With `C=CCCN1CCc2c([nH]c3ccccc23)C1C(=O)O` (centres undefined), the TGI with HCC-2998 colon, with SNB-75 CNS, in the assay with IGROV1 ovarian, in the assay on OVCAR-4 ovarian, in the assay on ACHN renal and in the assay with EKVX NSCLC was above 100 µM in each case. In the assay with NCI-H522 lung, the TGI is above 100 µM.

Take `O=C1CCC(c2ccc(Cl)cc2)=NN1c1nsc2ccccc12`: the TGI in the assay with HCC-2998 colon was 44.8 µM; with SNB-75 CNS it was 56 µM; in the assay with IGROV1 ovarian, above 100 µM; in the assay with OVCAR-4 ovarian, above 100 µM; in the assay with ACHN renal it was above 100 µM; in the assay with EKVX NSCLC, 88.5 µM.

For the compound `COC[C@@H](C[C@H]1O[C@@](O)([C@H](O)[C@@H]2C[C@H](OC)[C@@H](O)CC/C=C(C)/C=C/[C@@H](O[C@@H]3O[C@@H](C)[C@H](OC)[C@@H](O)[C@@H]3O)[C@H](C)/C=C(C)/C=C(C)/C=C(\C)C(=O)O2)[C@H](C)[C@@H](O)[C@H]1C)O[C@H]1C[C@](C)(O)[C@@H](O[C@H]2C[C@@H](OC)[C@H](O)[C@@H](C)O2)C(C)O1` (some centres undefined), the TGI with HCC-2998 colon, in the assay with MDA-N, in the assay with IGROV1 ovarian, with OVCAR-4 ovarian, in the assay on T-47D breast and in the assay with ACHN renal was above 100 µM in each case. In addition, the total growth inhibition concentration (TGI) was above 100 µM in the assay on MCF7 breast, above 100 µM in the assay on HCT-15 colon and above 55.9 µM in the assay on EKVX NSCLC.

As for `COc1cc(/C=C(\C#N)C(N)=O)cc(Br)c1O`, the total growth inhibition concentration (TGI) was above 100 µM in the assay on HCC-2998 colon; 14.4 µM and > 100 µM with SNB-75 CNS; above 100 µM in the assay with IGROV1 ovarian; above 100 µM in the assay with OVCAR-4 ovarian; above 100 µM with MCF7 breast; above 100 µM in the assay with HCT-15 colon. Besides, the TGI is above 100 µM in the assay on EKVX NSCLC; 35.4 µM and 87.3 µM in the assay on NCI-H522 lung. Also, the GI50 (in general, the concentration giving 50% growth inhibition) was 45.8 µM and > 100 µM in the assay with EKVX NSCLC; 15.7 µM and 28.9 µM in the assay with NCI-H522 lung.

As to `COc1ccccc1/C=C1\SC(=S)N(/C=C2\C(=O)Oc3ccccc3C2=O)C1=O`, the TGI with MDA-N was above 100 µM; in the assay with SNB-75 CNS it was 55.6 µM; in the assay on IGROV1 ovarian, above 100 µM; in the assay with OVCAR-4 ovarian it was above 100 µM; in the assay on ACHN renal it was above 100 µM; in the assay on MCF7 breast it was above 100 µM. Also, the TGI in the assay with HCT-15 colon is above 100 µM; in the assay on EKVX NSCLC, 60.2 µM; in the assay with NCI-H522 lung it was 95.7 µM.

In the case of `COc1cc(Cn2c3c(c4cc(O)ccc42)Cc2ccccc2C3=O)cc(OC)c1`, the TGI in the assay with MDA-N was above 100 µM; in the assay on SNB-75 CNS, 58.5 µM; with IGROV1 ovarian, above 100 µM; in the assay on OVCAR-4 ovarian, above 100 µM; in the assay with MCF7 breast it was 78.6 µM; in the assay on HCT-15 colon it was above 100 µM.

For the compound `CCOCc1nc2c(OC)cc(-c3nc4ccc(N5CCN(C)CC5)cc4[nH]3)c(OC)c2[nH]1`, the TGI was 35.9 µM in the assay on MDA-N; 87.1 µM in the assay with SNB-75 CNS; above 100 µM with IGROV1 ovarian; above 100 µM in the assay on OVCAR-4 ovarian; above 100 µM in the assay on T-47D breast; above 100 µM in the assay with ACHN renal. Moreover, the TGI was above 100 µM with MCF7 breast, above 100 µM in the assay on HCT-15 colon, above 100 µM in the assay on EKVX NSCLC and 58.2 µM with NCI-H522 lung.

As to `O=Cc1c(C(=O)O)[nH]c(=O)[nH]c1=O`, the TGI with MDA-N, in the assay with SNB-75 CNS, with IGROV1 ovarian, in the assay on ACHN renal, in the assay on HCT-15 colon and in the assay with EKVX NSCLC was above 100 µM throughout. For the same compound, the TGI in the assay with NCI-H522 lung was above 100 µM.

With `CNc1ccc(C(=O)CC(O)CCC(C)C2OC(=O)CC(O)CC(=O)CC(O)CC(O)CC(O)CC(O)CC3(O)CC(O)C(C(=O)OC)C(CC(O[C@@H]4O[C@H](C)[C@@H](O)[C@H](N)[C@@H]4O)/C=C/C=C/C=C/C=C/C=C/C=C/C=C/C2C)O3)cc1` (some centres undefined), the GI50 is 3.25 µM with HCC-2998 colon; 2.83 µM with SNB-75 CNS; 2.96 µM with IGROV1 ovarian; 3.37 µM with T-47D breast; 3.18 µM in the assay with MCF7 breast; 4.9 µM in the assay on HCT-15 colon. Moreover, in the assay on NCI-H522 lung, the GI50 was 2.48 µM. Moreover, the TGI in the assay with HCC-2998 colon was 12.3 µM; in the assay with SNB-75 CNS it was 30.8 µM; in the assay with IGROV1 ovarian, 7.94 µM; in the assay on T-47D breast, above 100 µM; in the assay with MCF7 breast it was 19 µM; in the assay on HCT-15 colon, above 100 µM. The TGI in the assay on NCI-H522 lung came out at 6.03 µM.
